The results in this text go back to patent US8673966B2, “ALDH-2 inhibitors in the treatment of addiction” (Gilead Sciences, Inc., priority 2011, dated 2014).

What all share (assay type): biochemical
In one experiment the target is hMAO-A (Homo sapiens (Human), UniProt P21397). The experiment in a line: MAO-A assay (luminogenic MAO substrate). Conditions: microsome contained MAO-A, 160 uM substrate, 20 min pre-incubation; unit inferred. Here is the method: (§1) MAO assays included luminogenic MAO substrate, reaction buffers, Luciferin Detection and the reconstitution buffer with esterase. Standard MAO reaction mixtures included microsome contained MAO-A (2 ug) or MAO-B (10 ug), 160 uM substrate for MAO-A or 16 uM substrate for MAO-B, MAO-A buffer (100 mM Hepes buffer, pH 7.5, 5% glycerol) or MAO-B buffer (100 mM Hepes, pH 7.5, 5% glycerol, 10% dimethyl sulfoxide) in a final volume of 30 ul. After 20 minutes of pre-incubation of the enzyme with compounds, the reaction was initiated by adding enzyme substrate and the reaction was allowed to proceed for 60 minutes. Reconstituted Luciferin Detection Reagent (30 ul) was then added is added to simultaneously stop the MAO reaction and convert the methyl ester derivative to luciferin and produce light. The amount of light produced is directly proportional to the activity of MAO. The mixtures were further incubated for 20 minutes and activity of the enzyme was determined using Perkin-Elmer Envision Reader.
(§2) Note: IC50 refers to the concentration of a compound that inhibits a reaction by 50%. In the case of competitive inhibition, IC50=2Ki when the substrate is present at the Km concentration, as per the relationship: Ki=IC50/[1+(substrate concentration/Km)].

The next experiment deals with hMAO-B (Homo sapiens (Human), UniProt P27338). As to the kind of experiment: MAO-B assay (luminogenic MAO substrate). Conditions: microsome contained MAO-B, 16 uM substrate, 20 min pre-incubation; unit inferred. On the procedure: as §1, §2
A further experiment has as its target recombinant human ALDH2 (Homo sapiens (Human), UniProt P05091). The experiment in a line: ALDH2 assay (NADH formation). Conditions: 10 nM recombinant human ALDH2, 150 uM formaldehyde, 60 min pre-incubation; read-out: IC50 hALDH2. On the procedure: Standard ALDH2 reaction mixtures contained 150 uM formaldehyde, 2.5 mM NAD^+, 10 mM MgCl2 and 10 nM recombinant human ALDH2 in 50 mM Hepes buffer, pH 7.4, 0.01% Tween 20 in a final volume of 50 ul using 384-well plates. After 60 min of pre-incubation of compound with ALDH2 and formaldehyde, the reaction was started by adding NAD+ and the reaction mixture was allowed to proceed for 90 minutes. Activity of the enzyme was determined by monitoring NADH formation using Perkin-Elmer Envision Reader with excitation and emission wavelengths set at 340 and 460 nm, respectively.
as §2

Bounds are passed on as bounds.

A word on the IC50: it is the concentration that gives 50% inhibition.

Chain of hMAO-B (P27338 whole entry): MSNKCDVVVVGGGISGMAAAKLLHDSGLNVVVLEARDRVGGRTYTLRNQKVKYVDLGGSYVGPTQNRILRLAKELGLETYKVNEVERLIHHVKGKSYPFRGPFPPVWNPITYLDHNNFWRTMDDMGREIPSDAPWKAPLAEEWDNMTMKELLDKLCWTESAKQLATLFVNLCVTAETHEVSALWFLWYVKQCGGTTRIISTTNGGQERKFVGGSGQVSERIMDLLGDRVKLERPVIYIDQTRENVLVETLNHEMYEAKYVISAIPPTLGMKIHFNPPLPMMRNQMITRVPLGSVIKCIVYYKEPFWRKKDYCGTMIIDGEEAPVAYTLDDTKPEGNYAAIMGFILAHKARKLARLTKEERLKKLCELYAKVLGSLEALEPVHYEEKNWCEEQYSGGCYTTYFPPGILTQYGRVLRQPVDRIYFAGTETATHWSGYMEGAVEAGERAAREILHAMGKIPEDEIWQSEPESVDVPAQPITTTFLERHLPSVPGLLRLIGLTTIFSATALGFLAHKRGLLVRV
Chain of hMAO-A (P21397 whole entry): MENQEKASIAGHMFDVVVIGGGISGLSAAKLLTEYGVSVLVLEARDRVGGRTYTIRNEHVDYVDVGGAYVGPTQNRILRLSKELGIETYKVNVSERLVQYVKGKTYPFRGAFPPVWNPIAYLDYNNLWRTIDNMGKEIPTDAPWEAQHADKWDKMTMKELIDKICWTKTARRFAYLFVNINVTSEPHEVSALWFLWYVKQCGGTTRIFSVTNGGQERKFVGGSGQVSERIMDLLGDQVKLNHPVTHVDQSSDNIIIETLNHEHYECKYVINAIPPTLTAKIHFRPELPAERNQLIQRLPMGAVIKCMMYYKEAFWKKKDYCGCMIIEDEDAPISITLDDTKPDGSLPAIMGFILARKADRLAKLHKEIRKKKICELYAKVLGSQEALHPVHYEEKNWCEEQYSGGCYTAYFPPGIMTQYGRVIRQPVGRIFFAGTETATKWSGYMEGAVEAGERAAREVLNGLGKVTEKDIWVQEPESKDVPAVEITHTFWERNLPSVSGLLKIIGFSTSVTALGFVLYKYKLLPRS
Chain of recombinant human ALDH2 (P05091 18-517): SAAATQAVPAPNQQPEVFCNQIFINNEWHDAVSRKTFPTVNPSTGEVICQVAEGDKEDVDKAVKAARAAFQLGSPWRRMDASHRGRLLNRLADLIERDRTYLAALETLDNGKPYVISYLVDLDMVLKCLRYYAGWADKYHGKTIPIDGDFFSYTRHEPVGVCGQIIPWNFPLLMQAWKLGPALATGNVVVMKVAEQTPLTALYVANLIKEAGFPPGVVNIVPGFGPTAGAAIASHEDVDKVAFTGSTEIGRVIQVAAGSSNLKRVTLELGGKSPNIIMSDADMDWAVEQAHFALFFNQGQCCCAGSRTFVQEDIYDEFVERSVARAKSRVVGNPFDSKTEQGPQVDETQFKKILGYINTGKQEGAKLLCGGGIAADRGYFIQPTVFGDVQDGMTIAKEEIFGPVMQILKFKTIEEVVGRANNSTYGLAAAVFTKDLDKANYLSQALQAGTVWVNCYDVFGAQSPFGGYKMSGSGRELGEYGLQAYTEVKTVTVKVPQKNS

`CS(=O)(=O)Nc1ccc(-c2coc3cc(C#Cc4cc[nH]c(=O)c4)ccc3c2=O)cc1` [N-(4-(4-oxo-7-((2-oxo-1,2-dihydropyridin-4-yl)ethynyl)-4H-chromen-3-yl)phenyl)methanesulfonamide]: the IC50 at hMAO-A is above 130 µM; on hMAO-B, above 130 µM; at recombinant human ALDH2, 0.009 µM.
In the case of `CS(=O)(=O)Nc1ccc(-c2coc3cc(C#CC4CCOCC4)ccc3c2=O)cc1` [N-(4-(4-oxo-7-((tetrahydro-2H-pyran-4-yl)ethynyl)-4H-chromen-3-yl)phenyl)methanesulfonamide], the IC50 against hMAO-A is above 130 µM; on hMAO-B, above 130 µM; on recombinant human ALDH2, 0.043 µM.
Consider `CS(=O)(=O)Nc1ccc(-c2coc3cc(C#Cc4ccccc4)ccc3c2=O)cc1` [N-(4-(4-oxo-7-(phenylethynyl)-4H-chromen-3-yl)phenyl)methanesulfonamide], for which the results for the IC50 against hMAO-A, against hMAO-B and at recombinant human ALDH2 were above 13 µM, above 13 µM and 0.329 µM, respectively.
On to `CS(=O)(=O)Nc1ccc(-c2coc3cc(C#CC4CCNCC4)ccc3c2=O)cc1` [N-(4-(4-oxo-7-(piperidin-4-ylethynyl)-4H-chromen-3-yl)phenyl)methanesulfonamide], for which the IC50 at hMAO-A is above 110 µM; against hMAO-B, above 130 µM; on recombinant human ALDH2 it was 0.174 µM.
As to `CS(=O)(=O)Nc1ccc(-c2coc3cc(C#Cc4ccccn4)ccc3c2=O)cc1` [N-(4-(4-oxo-7-(pyridin-2-ylethynyl)-4H-chromen-3-yl)phenyl)methanesulfonamide], the IC50 was above 130 µM against hMAO-A, above 130 µM on hMAO-B and 0.09 µM at recombinant human ALDH2.
In the case of `CS(=O)(=O)Nc1ccc(-c2coc3cc(C#Cc4cccnc4)ccc3c2=O)cc1` [N-(4-(4-oxo-7-(pyridin-3-ylethynyl)-4H-chromen-3-yl)phenyl)methanesulfonamide], the IC50 against hMAO-A was above 130 µM; at hMAO-B it was above 130 µM; at recombinant human ALDH2 it was 0.021 µM.
As to `CS(=O)(=O)Nc1ccc(-c2coc3cc(C#Cc4cncnc4)ccc3c2=O)cc1` [N-(4-(4-oxo-7-(pyrimidin-5-ylethynyl)-4H-chromen-3-yl)phenyl)methanesulfonamide], the IC50 against hMAO-A was above 130 µM; against hMAO-B, 114 µM; at recombinant human ALDH2, 0.057 µM.
For the molecule `CC(C)(O)C#Cc1ccc2c(=O)c(-c3ccc(NS(C)(=O)=O)cc3)coc2c1` [N-(4-(7-(3-hydroxy-3-methylbut-1-ynyl)-4-oxo-4H-chromen-3-yl)phenyl)methanesulfonamide], the IC50 on hMAO-A is above 91 µM; on hMAO-B it was above 91 µM; at recombinant human ALDH2 it was 2.18 µM.
`COCC#Cc1ccc2c(=O)c(-c3ccc(NS(=O)(=O)C4CC4)cc3)coc2c1` [N-(4-(7-(3-methoxyprop-1-ynyl)-4-oxo-4H-chromen-3-yl)phenyl)cyclopropanesulfonamide]: the IC50 is above 130 µM against hMAO-A, above 130 µM against hMAO-B and 0.096 µM at recombinant human ALDH2.
As for `COCC#Cc1ccc2c(=O)c(-c3ccc(NS(C)(=O)=O)cc3)coc2c1` [N-(4-(7-(3-methoxyprop-1-ynyl)-4-oxo-4H-chromen-3-yl)phenyl)methanesulfonamide], the IC50 was above 130 µM against hMAO-A, above 130 µM against hMAO-B and 0.047 µM at recombinant human ALDH2.
Take `Cc1ncc(C#Cc2ccc3c(=O)c(-c4ccc(NS(C)(=O)=O)cc4)coc3c2)n1C` [N-(4-(7-((1,2-dimethyl-1H-imidazol-5-yl)ethynyl)-4-oxo-4H-chromen-3-yl)phenyl)methanesulfonamide]: the IC50 on hMAO-A was above 130 µM; at hMAO-B, above 130 µM; at recombinant human ALDH2 it was 0.015 µM.
As for `CC1(C(=O)N2CC(C#Cc3ccc4c(=O)c(-c5ccc(NS(C)(=O)=O)cc5)coc4c3)C2)CC1` [N-(4-(7-((1-(1-methylcyclopropanecarbonyl)-azetidin-3-yl)ethynyl)-4-oxo-4H-chromen-3-yl)phenyl)methanesulfonamide], the figures for the IC50 against hMAO-A, against hMAO-B and at recombinant human ALDH2 were above 130 µM, above 130 µM and 0.006 µM, respectively.
In the case of `CN1CCC(C(=O)N2CC(C#Cc3ccc4c(=O)c(-c5ccc(NS(C)(=O)=O)cc5)coc4c3)C2)CC1` [N-(4-(7-((1-(1-methylpiperidine-4-carbonyl)azetidin-3-yl)ethynyl)-4-oxo-4H-chromen-3-yl)phenyl)methanesulfonamide], the IC50 was above 130 µM at hMAO-A, above 130 µM at hMAO-B and 0.035 µM at recombinant human ALDH2.
Take `CS(=O)(=O)Nc1ccc(-c2coc3cc(C#CC4CN(C(=O)C5CC5(F)F)C4)ccc3c2=O)cc1` (stereo not drawn) [N-(4-(7-((1-(2,2-difluorocyclopropane-carbonyl)azetidin-3-yl)ethynyl)-4-oxo-4H-chromen-3-yl)phenyl)methanesulfonamide]: the IC50 against hMAO-A was above 130 µM; against hMAO-B it was above 130 µM; at recombinant human ALDH2, 0.005 µM.
For the molecule `CC(C)(O)C(=O)N1CC(C#Cc2ccc3c(=O)c(-c4ccc(NS(C)(=O)=O)cc4)coc3c2)C1` [N-(4-(7-((1-(2-hydroxy-2-methylpropanoyl)-azetidin-3-yl)ethynyl)-4-oxo-4H-chromen-3-yl)phenyl)methanesulfonamide], the IC50 was above 130 µM against hMAO-A, above 130 µM against hMAO-B and 0.016 µM at recombinant human ALDH2.
Take `CS(=O)(=O)Nc1ccc(-c2coc3cc(C#CC4CN(C(=O)CO)C4)ccc3c2=O)cc1` [N-(4-(7-((1-(2-hydroxyacetyl)azetidin-3-yl)ethynyl)-4-oxo-4H-chromen-3-yl)phenyl)methanesulfonamide]: the IC50 on hMAO-A was above 130 µM; against hMAO-B it was above 130 µM; on recombinant human ALDH2, 0.015 µM.
In the case of `CC(O)C(=O)N1CC(C#Cc2ccc3c(=O)c(-c4ccc(NS(C)(=O)=O)cc4)coc3c2)C1` (stereo not drawn) [N-(4-(7-((1-(2-hydroxypropanoyl)azetidin-3-yl)ethynyl)-4-oxo-4H-chromen-3-yl)phenyl)methanesulfonamide], the IC50 is above 130 µM at hMAO-A, above 130 µM against hMAO-B and 0.015 µM on recombinant human ALDH2.
For `CS(=O)(=O)Nc1ccc(-c2coc3cc(C#CC4CN(C(=O)C5CC(F)(F)C5)C4)ccc3c2=O)cc1` [N-(4-(7-((1-(3,3-difluorocyclobutanecarbonyl)azetidin-3-yl)ethynyl)-4-oxo-4H-chromen-3-yl)phenyl)methanesulfonamide], the IC50 was above 130 µM on hMAO-A, above 130 µM on hMAO-B and 0.006 µM at recombinant human ALDH2.
Regarding `CN(C)CCC(=O)N1CC(C#Cc2ccc3c(=O)c(-c4ccc(NS(C)(=O)=O)cc4)coc3c2)C1` [N-(4-(7-((1-(3-(dimethylamino)propanoyl)azetidin-3-yl)ethynyl)-4-oxo-4H-chromen-3-yl)phenyl)methanesulfonamide], the IC50 on hMAO-A is 46.9 µM; at hMAO-B it was above 130 µM; at recombinant human ALDH2 it was 0.064 µM.
For `CC1(O)CC(C(=O)N2CC(C#Cc3ccc4c(=O)c(-c5ccc(NS(C)(=O)=O)cc5)coc4c3)C2)C1` (stereo not drawn) [N-(4-(7-((1-(3-hydroxy-3-methylcyclobutane-carbonyl)azetidin-3-yl)ethynyl)-4-oxo-4H-chromen-3-yl)phenyl)methanesulfonamide], the results for the IC50 at hMAO-A, against hMAO-B and on recombinant human ALDH2 were above 130 µM, above 130 µM and 0.005 µM, respectively.
Regarding `COCCC(=O)N1CC(C#Cc2ccc3c(=O)c(-c4ccc(NS(C)(=O)=O)cc4)coc3c2)C1` [N-(4-(7-((1-(3-methoxypropanoyl)azetidin-3-yl)ethynyl)-4-oxo-4H-chromen-3-yl)phenyl)methanesulfonamide], the IC50 against hMAO-A was above 130 µM; at hMAO-B, above 130 µM; at recombinant human ALDH2, 0.008 µM.
